Legend:
[1] = molecular target: T1, Progesterone Receptor (PR) (Homo sapiens, UniProt P06401); assay: Functional assay of progesterone receptor antagonism (progesterone-induced alkaline phosphatase activity in T-47D cells); assay type: cell-based; details: antagonism of progesterone (3 nM)-induced PR activity, read-out: PR-T47D IC50
T1 sequence (P06401 679-933 limits assumed): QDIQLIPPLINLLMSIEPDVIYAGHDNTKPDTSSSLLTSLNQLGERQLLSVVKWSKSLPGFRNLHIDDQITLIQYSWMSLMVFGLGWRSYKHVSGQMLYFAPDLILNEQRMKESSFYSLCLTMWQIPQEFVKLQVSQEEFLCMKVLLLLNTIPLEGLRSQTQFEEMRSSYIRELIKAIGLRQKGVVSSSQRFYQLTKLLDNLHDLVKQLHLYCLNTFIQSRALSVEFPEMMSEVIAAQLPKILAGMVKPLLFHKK
Experimental: The PR antagonist activity of the compounds is determined by progesterone-induced alkaline phosphatase activity in the T-47D cell line (ATCC). In the T-47D breast cancer cells, progesterone specifically induces de novo synthesis of a membrane-associated alkaline phosphatase enzyme in a time and dose-dependent manner (Di Lorenzo et al., Cancer Research, 51: 4470-4475 (1991)). The alkaline phosphatase enzymatic activity can be measured with a chemiluminescent substrate, such as CSPD® (Applied Biosystems).
The assay is performed in 384 well plates. Briefly, T-47D cells are plated in 384 well plates at a density of approximately 2.5×10^4 cells/well in 50 μl medium supplemented with 10% fetal bovine serum. Twenty four hours later, the medium is aspirated. New medium that is free of phenol red and serum is added to the cells. Compounds prepared in DMSO are transferred to the cells. The cells are then stimulated with 3 nM final concentration of progesterone (Sigma) and incubated at 37° C. for another 24 hours before the alkaline phosphatase is assayed with 25 μl of CSPD® (Applied Biosystems) using a luminometer (CLIPR). The expression of alkaline phosphatase is used as an indicator of progesterone-induced PR trans-activation. Each compound is tested in duplicates with a 12-concentration titration. IC50 values (defined as the concentration of test compound required to antagonize 50% of progesterone-induced PR activity) are determined from the dose-response curve.

Androgen Receptor (AR) = molecular target: T2, Androgen Receptor (AR) (Homo sapiens, UniProt P10275); assay: Functional assay of androgen receptor antagonism (MMTV luciferase reporter in MDA-kb2 cells); assay type: cell-based; details: antagonism of dihydrotestosterone (0.3 nM)-induced AR activity
T2 sequence (P10275 1-920 Q868H): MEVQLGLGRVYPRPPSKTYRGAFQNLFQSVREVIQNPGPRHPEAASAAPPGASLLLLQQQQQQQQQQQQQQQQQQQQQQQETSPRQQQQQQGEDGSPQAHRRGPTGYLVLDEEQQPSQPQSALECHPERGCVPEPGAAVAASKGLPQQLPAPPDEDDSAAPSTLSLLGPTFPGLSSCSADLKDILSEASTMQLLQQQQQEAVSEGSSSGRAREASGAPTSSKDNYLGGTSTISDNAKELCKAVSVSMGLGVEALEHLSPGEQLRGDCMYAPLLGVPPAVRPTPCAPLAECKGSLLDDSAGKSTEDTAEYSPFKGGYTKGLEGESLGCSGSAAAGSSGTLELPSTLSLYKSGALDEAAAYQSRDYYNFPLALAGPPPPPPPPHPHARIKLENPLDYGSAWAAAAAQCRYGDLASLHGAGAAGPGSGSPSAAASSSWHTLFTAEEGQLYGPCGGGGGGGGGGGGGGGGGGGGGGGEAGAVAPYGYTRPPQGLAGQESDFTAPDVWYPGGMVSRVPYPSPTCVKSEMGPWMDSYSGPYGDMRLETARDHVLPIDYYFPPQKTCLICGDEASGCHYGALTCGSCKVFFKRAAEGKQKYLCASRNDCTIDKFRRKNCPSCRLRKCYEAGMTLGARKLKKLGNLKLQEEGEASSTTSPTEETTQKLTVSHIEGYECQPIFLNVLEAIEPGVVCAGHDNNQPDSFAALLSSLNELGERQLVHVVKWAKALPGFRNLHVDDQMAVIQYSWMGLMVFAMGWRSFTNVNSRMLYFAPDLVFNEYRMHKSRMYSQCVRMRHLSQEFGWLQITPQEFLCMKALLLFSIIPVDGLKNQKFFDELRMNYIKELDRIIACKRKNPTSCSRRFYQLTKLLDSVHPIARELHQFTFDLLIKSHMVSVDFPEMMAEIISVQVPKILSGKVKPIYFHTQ
Experimental: The AR antagonist activity of the compounds is determined with the MDA-Kb2 cell line (ATCC), which stably expresses the MMTV luciferase reporter. The MMTV promoter is a mouse mammary tumor virus promoter that contains androgen receptor response elements. […] Upon stimulation with AR ligands, such as dihydrotestosterone, the MMTV luciferase reporter can be activated.
The assay is performed in 384 well plates. Briefly, MDA-kb2 cells are plated in 384 well plates at a density of approximately 2.4×10^4 cells/well in 50 μl medium. The medium is supplemented with 5% charcoal-dextran treated fetal bovine serum (Hyclone). Twenty four hours later, compounds prepared in DMSO are transferred to the cells. The cells are then stimulated with 0.3 nM final concentration of dihydrotestosterone (Sigma) and incubated at 37° C. for another 24 hours before the luciferase activity is assayed with 20 μl of Bright-Glo (Promega) using a luminometer (CLIPR). The expression of luciferase is used as an indicator of dihydrotestosterone-induced AR trans-activation. Each compound is tested in duplicates with a 12-concentration titration. IC50 values (defined as the concentration of test compound required to antagonize 50% of dihydrotestosterone-induced AR activity) are determined from the dose-response curve.

CC12CCC(=O)N1CC1(O2)c2ccccc2CCc2ccccc21 (centres unmarked) [FRS-13]
IC50 [1]: > 10000 nM | IC50 (Androgen Receptor (AR)): 100 to 1000 nM

O=C1CCC2(c3ccccc3)OC3(CN12)c1ccccc1C=Cc1ccccc13 (centres unmarked) [FRS-2]
IC50 [1]: > 10000 nM | IC50 (Androgen Receptor (AR)): 100 to 1000 nM

CC12CCCC(=O)N1CC1(O2)c2ccccc2C=Cc2ccccc21 (centres unmarked) [FRS-4]
IC50 [1]: 1000 to 10000 nM | IC50 (Androgen Receptor (AR)): > 10000 nM

CC12CCC(=O)N1CC1(O2)c2ccccc2CCc2ccccc21 (single isomer, unassigned) [FRS-13 (Chiral Synthesis)]
IC50 [1]: > 10000 nM | IC50 (Androgen Receptor (AR)): 100 to 1000 nM

CC12CCCCC(=O)N1CC1(O2)c2ccccc2C=Cc2ccccc21 (centres unmarked) [FRS-6]
IC50 [1]: > 10000 nM | IC50 (Androgen Receptor (AR)): 1000 to 10000 nM

CC(=O)N1CC2(OC1(C)C)c1ccccc1C=Cc1ccccc12 [SOXS-3]
IC50 [1]: 1000 to 10000 nM | IC50 (Androgen Receptor (AR)): 1000 to 10000 nM

O=C1CCC2(c3ccc(F)cc3)OC3(CN12)c1ccccc1C=Cc1ccccc13 (centres unmarked) [FRS-3]
IC50 [1]: > 10000 nM | IC50 (Androgen Receptor (AR)): 1000 to 10000 nM

CC12CCCC(=O)N1CC1(O2)c2ccccc2CCc2ccccc21 (centres unmarked) [FRS-14]
IC50 [1]: 1000 to 10000 nM | IC50 (Androgen Receptor (AR)): 1000 to 10000 nM

O=C1CCC2(C3CC3)OC3(CN12)c1ccccc1C=Cc1ccccc13 (centres unmarked) [FRS-10]
IC50 [1]: > 10000 nM | IC50 (Androgen Receptor (AR)): 100 to 1000 nM

Oc1ccc(C2=NCC3(O2)c2ccccc2C=Cc2ccccc23)cc1 [OXS-1]
IC50 [1]: > 10000 nM | IC50 (Androgen Receptor (AR)): 1000 to 10000 nM

CC(=O)N1CC2(OC13CCCCC3)c1ccccc1C=Cc1ccccc12 [SOXS-6]
IC50 [1]: 100 to 1000 nM | IC50 (Androgen Receptor (AR)): 1000 to 10000 nM

CC1(C)OC2(CN1C(=O)Nc1ccc(F)cc1F)c1ccccc1C=Cc1ccccc12 [SOXS-1]
IC50 [1]: 1000 to 10000 nM | IC50 (Androgen Receptor (AR)): > 10000 nM

O=C1CCCC2(C(F)(F)F)OC3(CN12)c1ccccc1C=Cc1ccccc13 (centres unmarked) [FRS-11]
IC50 [1]: > 10000 nM | IC50 (Androgen Receptor (AR)): 100 to 1000 nM

CC1(C)OC2(CN1S(C)(=O)=O)c1ccccc1C=Cc1ccccc12 [SOXS-4]
IC50 [1]: 100 to 1000 nM | IC50 (Androgen Receptor (AR)): 1000 to 10000 nM

CC12CCC(=O)N1CC1(O2)c2ccccc2C=Cc2ccccc21 (single isomer, unassigned) [FRS-1 (Chiral Synthesis)]
IC50 [1]: > 10000 nM | IC50 (Androgen Receptor (AR)): 100 to 1000 nM

CCCC12CCC(=O)N1CC1(O2)c2ccccc2C=Cc2ccccc21 (centres unmarked) [FRS-9]
IC50 [1]: 1000 to 10000 nM | IC50 (Androgen Receptor (AR)): 100 to 1000 nM

O=C1CCC2(c3cccs3)OC3(CN12)c1ccccc1C=Cc1ccccc13 (centres unmarked) [FRS-8]
IC50 [1]: 1000 to 10000 nM | IC50 (Androgen Receptor (AR)): 100 to 1000 nM

CC12CCC(=O)N1CC1(O2)c2ccccc2C=Cc2ccccc21 (centres unmarked) [FRS-1]
IC50 [1]: > 10000 nM | IC50 (Androgen Receptor (AR)): 100 to 1000 nM

COc1ccc(C23CCC(=O)N2CC2(O3)c3ccccc3C=Cc3ccccc32)cc1 (centres unmarked) [FRS-5]
IC50 [1]: > 10000 nM | IC50 (Androgen Receptor (AR)): > 10000 nM

Reference: US7807841B2, “Spiro-containing compounds and compositions as modulators of steroid hormone nuclear receptors” (IRM LLC, priority 2005, dated 2010)
